Counter-ions that a name gives are not always drawn.
molecular target: T1, full-length USP7 (Homo sapiens, UniProt Q93009); assay: Enzymatic assay to determine IC50 of USP7 inhibitors (Ubiquitin-Rhodamine 110 cleavage); type: biochemical; settings: full-length USP7 0.5-1.0 nM, 0.5 μM Ubiquitin-Rhodamine 110, 30-60 min at 25° C.
T1 construct: A 45 μl reaction volume containing full-length USP7 (0.5-1.0 nM)
Method: Enzymatic Assay to Determine IC50 of USP7 Inhibitors
The IC50 is the concentration of an inhibitor where the measured enzyme activity is reduced by half. In the case of USP7 deubiquitinase, the IC50 of an USP7 inhibitor is the molar concentration of the compound that inhibits 50% of the activity observed in a USP7-mediated-ubiquitin-rhodamine cleavage assay. For the inhibitors disclosed herein, their potency was measured using the following method.
A 45 μl reaction volume containing full-length USP7 (0.5-1.0 nM) in 50 mM HEPES pH 7.5, 150 mM NaCl, 2 mM DTT, 1 mg/ml BSA and 0.05% Tween20 was assembled in wells of 96 well half area black flat bottom plates. Test compounds were first dissolved to 30 mM stocks in DMSO and subsequently introduced to enzyme 15 min after USP7 incubation with DTT at room temperature. The enzymatic reaction was started by adding 0.5 μM Ubiquitin-Rhodamine 110 (final concentration) and allowed to proceed for 30-60 min at 25° C., 250 RPM shaking before Rhodamine fluorescence (485 nm excitation/535 nm emission) was measured using Tecan Spark M10 plate reader. The IC50 values were determined by data fitting to variable slope model four-parameter dose-response curve using GraphPad 7.05.

T1 sequence (Q93009 whole entry): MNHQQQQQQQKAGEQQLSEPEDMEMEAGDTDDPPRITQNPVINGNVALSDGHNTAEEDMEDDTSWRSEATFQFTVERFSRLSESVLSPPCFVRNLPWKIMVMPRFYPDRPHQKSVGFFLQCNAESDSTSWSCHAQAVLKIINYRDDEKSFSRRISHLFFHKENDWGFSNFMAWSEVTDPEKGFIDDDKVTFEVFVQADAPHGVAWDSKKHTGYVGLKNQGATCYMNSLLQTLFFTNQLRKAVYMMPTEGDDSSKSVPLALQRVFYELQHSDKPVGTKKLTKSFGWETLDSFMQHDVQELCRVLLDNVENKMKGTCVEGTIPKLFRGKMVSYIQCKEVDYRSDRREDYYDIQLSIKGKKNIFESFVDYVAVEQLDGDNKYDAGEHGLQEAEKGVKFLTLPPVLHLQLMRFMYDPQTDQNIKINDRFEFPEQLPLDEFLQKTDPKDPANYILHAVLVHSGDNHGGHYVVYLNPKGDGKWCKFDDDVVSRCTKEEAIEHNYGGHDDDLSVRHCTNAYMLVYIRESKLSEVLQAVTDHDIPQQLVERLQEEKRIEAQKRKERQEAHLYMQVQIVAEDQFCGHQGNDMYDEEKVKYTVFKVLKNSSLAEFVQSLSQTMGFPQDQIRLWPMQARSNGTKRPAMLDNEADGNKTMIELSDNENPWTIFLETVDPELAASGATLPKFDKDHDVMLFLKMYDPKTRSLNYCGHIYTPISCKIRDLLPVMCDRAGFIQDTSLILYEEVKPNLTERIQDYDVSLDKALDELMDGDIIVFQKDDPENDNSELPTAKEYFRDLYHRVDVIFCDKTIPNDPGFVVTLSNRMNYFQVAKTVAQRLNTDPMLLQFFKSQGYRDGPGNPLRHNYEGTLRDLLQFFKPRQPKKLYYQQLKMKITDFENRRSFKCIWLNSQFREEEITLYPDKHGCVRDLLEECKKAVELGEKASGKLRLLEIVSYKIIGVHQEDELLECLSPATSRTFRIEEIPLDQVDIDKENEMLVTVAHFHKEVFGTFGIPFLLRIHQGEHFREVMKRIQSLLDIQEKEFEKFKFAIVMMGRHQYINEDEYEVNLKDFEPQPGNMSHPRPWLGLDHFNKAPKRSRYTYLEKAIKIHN

| Structure (SMILES) | IC50 [nM] |
| --- | --- |
| Cc1cc(Cl)cc(-c2ncnn3cc(Cn4c(=O)ccn(C)c4=O)cc23)c1CC1CNC[C@H](C)O1 (stereo partly drawn) [Example 59, 3-((4-(5-chloro-3-methyl-2-(((6S)-6-methylmorpholin-2-yl)methyl)phenyl)pyrrolo[2,1-f][1,2,4]triazin-6-yl)methyl)-1-methylpyrimidine-2,4(1H,3H)-dione hydrochloride] | < 500 |
| Cn1ccc(=O)n(Cc2cc3c(-c4cc(Cl)cc5ccn(CC6(F)CCNCC6)c45)ncnn3c2)c1=O [Example 61, 3-((4-(5-chloro-1-((4-fluoropiperidin-4-yl)methyl)-1H-indol-7-yl)pyrrolo[2,1-f][1,2,4]triazin-6-yl)methyl)-1-methylpyrimidine-2,4(1H,3H)-dione hydrochloride] | < 500 |
| Cc1cc(Cl)cc(-c2ncnn3cc(Cn4c(=O)ccn(CC(F)(F)F)c4=O)cc23)c1CC1CNC[C@H](C)O1 (stereo partly drawn) [Example 62, 3-((4-(5-chloro-3-methyl-2-(((6S)-6-methylmorpholin-2-yl)methyl)phenyl)pyrrolo[2,1-f][1,2,4]triazin-6-yl)methyl)-1-(2,2,2-trifluoroethyl)pyrimidine-2,4(1H,3H)-dione hydrochloride] | < 500 |
| CC1(C)C2C(=O)N(Cc3cc4c(-c5cc(Cl)cc6c5N(CC5(F)CCNCC5)CCC6)ncnn4c3)C(=O)C21 (stereo not shown) [Example 63, 3-((4-(6-chloro-1-((4-fluoropiperidin-4-yl)methyl)-1,2,3,4-tetrahydroquinolin-8-yl)pyrrolo[2,1-f][1,2,4]triazin-6-yl)methyl)-6,6-dimethyl-3-azabicyclo[3.1.0]hexane-2,4-dione hydrochloride] | < 500 |
| O=c1ccn(CC(F)(F)F)c(=O)n1Cc1cc2c(-c3cc(Cl)cc4ccn(CC5(F)CCNCC5)c34)ncnn2c1 [Example 70, 3-((4-(5-chloro-1-((4-fluoropiperidin-4-yl)methyl)-1H-indol-7-yl)pyrrolo[2,1-f][1,2,4]triazin-6-yl)methyl)-1-(2,2,2-trifluoroethyl)pyrimidine-2,4(1H,3H)-dione dihydrochloride] | < 500 |
| Cc1cc(Cl)cc(-c2ncnn3cc(CN4C(=O)C5C(C4=O)C5(C)C)cc23)c1NCC1(C)CCNCC1 (stereo not shown) [Example 78, 3-((4-(5-chloro-3-methyl-2-(((4-methylpiperidin-4-yl)methyl)amino)phenyl)pyrrolo[2,1-f][1,2,4]triazin-6-yl)methyl)-6,6-dimethyl-3-azabicyclo[3.1.0]hexane-2,4-dione dihydrochloride] | < 500 |
| Cc1cc(Cl)cc(-c2ncnn3cc(CN4C(=O)C5C(C4=O)C5(C)C)cc23)c1NCC1(F)CCNCC1 (stereo not shown) [Example 80, 3-((4-(5-chloro-2-(((4-fluoropiperidin-4-yl)methyl)amino)-3-methylphenyl)pyrrolo[2,1-f][1,2,4]triazin-6-yl)methyl)-6,6-dimethyl-3-azabicyclo[3.1.0]hexane-2,4-dione dihydrochloride] | < 500 |
| C[C@@H]1CN(C2CCNC2)c2c(cc(Cl)cc2-c2ncnn3cc(CN4C(=O)C5C(C4=O)C5(C)C)cc23)O1 (stereo partly drawn) [Example 93, 3-((4-((2R)-7-chloro-2-methyl-4-(pyrrolidin-3-yl)-3,4-dihydro-2H-benzo[b][1,4]oxazin-5-yl)pyrrolo[2,1-f][1,2,4]triazin-6-yl)methyl)-6,6-dimethyl-3-azabicyclo[3.1.0]hexane-2,4-dione hydrochloride] | < 500 |
| C[C@H]1CN(C2CCNC2)c2c(cc(Cl)cc2-c2ncnn3cc(CN4C(=O)C5C(C4=O)C5(C)C)cc23)O1 (stereo partly drawn) [Example 94, 3-((4-((2S)-7-chloro-2-methyl-4-(pyrrolidin-3-yl)-3,4-dihydro-2H-benzo[b][1,4]oxazin-5-yl)pyrrolo[2,1-f][1,2,4]triazin-6-yl)methyl)-6,6-dimethyl-3-azabicyclo[3.1.0]hexane-2,4-dione hydrochloride] | < 500 |
| Cc1cc(Cl)cc(-c2ncnn3cc(Cn4c(=O)ccn(CC(F)F)c4=O)cc23)c1CC1CNC[C@H](C)O1 (stereo partly drawn) [Example 95, 3-((4-(5-chloro-3-methyl-2-(((6S)-6-methylmorpholin-2-yl)methyl)phenyl)pyrrolo[2,1-f][1,2,4]triazin-6-yl)methyl)-1-(2,2-difluoroethyl)pyrimidine-2,4(1H,3H)-dione hydrochloride] | < 500 |
| Cc1cc(Cl)cc(-c2ncnn3cc(Cn4c(=O)ccn(CCF)c4=O)cc23)c1CC1CNC[C@H](C)O1 (stereo partly drawn) [Example 101, 3-((4-(5-chloro-3-methyl-2-(((6S)-6-methylmorpholin-2-yl)methyl)phenyl)pyrrolo[2,1-f][1,2,4]triazin-6-yl)methyl)-1-(2-fluoroethyl)pyrimidine-2,4(1H,3H)-dione hydrochloride] | < 500 |
| Cc1cc(Cl)cc(-c2ncnn3cc(CN4C(=O)CCN(C)C4=O)cc23)c1CC1CNC[C@H](C)O1 (stereo partly drawn) [Example 109, 3-((4-(5-chloro-3-methyl-2-(((6S)-6-methylmorpholin-2-yl)methyl)phenyl)pyrrolo[2,1-f][1,2,4]triazin-6-yl)methyl)-1-methyldihydropyrimidine-2,4(1H,3H)-dione hydrochloride] | < 500 |
| Cc1cc(Cl)cc(-c2ncnn3cc(Cn4c(=O)ccn(C(C)C)c4=O)cc23)c1CC1CNC[C@H](C)O1 (stereo partly drawn) [Example 111, 3-((4-(5-chloro-3-methyl-2-(((6S)-6-methylmorpholin-2-yl)methyl)phenyl)pyrrolo[2,1-f][1,2,4]triazin-6-yl)methyl)-1-isopropylpyrimidine-2,4(1H,3H)-dione hydrochloride] | < 500 |
| Cn1ccc(=O)n(Cc2cc3c(-c4cc(Cl)cc(Cl)c4CC4CNCCO4)ncnn3c2)c1=O (stereo not shown) [Example 118, 3-((4-(3,5-dichloro-2-(morpholin-2-ylmethyl)phenyl)pyrrolo[2,1-f][1,2,4]triazin-6-yl)methyl)-1-methylpyrimidine-2,4(1H,3H)-dione hydrochloride] | < 500 |
| O=c1cc[nH]c(=O)n1Cc1cc2c(-c3cc(Cl)cc4ccn(CC5(F)CCNCC5)c34)ncnn2c1 [Example 130, 3-((4-(5-chloro-1-((4-fluoropiperidin-4-yl)methyl)-1H-indol-7-yl)pyrrolo[2,1-f][1,2,4]triazin-6-yl)methyl)pyrimidine-2,4(1H,3H)-dione hydrochloride] | < 500 |
| Cl.[2H]C([2H])([2H])n1ccc(=O)n(Cc2cc3c(-c4cc(Cl)cc5ccn(CC6(F)CCNCC6)c45)ncnn3c2)c1=O [Example 131, 3-((4-(5-chloro-1-((4-fluoropiperidin-4-yl)methyl)-1H-indol-7-yl)pyrrolo[2,1-f][1,2,4]triazin-6-yl)methyl)-1-(methyl-d3)pyrimidine-2,4(1H,3H)-dione hydrochloride] | < 500 |

— US20240150362A1, “Substituted Pyrrolotriazines” (Molecure S.A., priority 2022, published 2024)
